Measurements reported in PubChem BioAssay AID1361 (SRMLSC, 2008).
Calls of active or inactive are those of the source. The rule behind the calls is not given here.

Assay: mitochondrial fusion inhibitors, confirmation, cell-based, chemical genetic, wild-type and mutant (AID 1361)
Settings: Cell-based mitochondrial fusion phenotype, imaging
[1] = mutant cells, measured here: mutant cell line IC50

| SMILES | IC50 (WT cells) | IC50 [1] |
| --- | --- | --- |
| Clc1ccc(C2=Nn3c(nnc3-c3cc(-c4ccccc4)n[nH]3)SC2)cc1 | > 25 µM (inactive) | > 25 µM |
| COc1cc(OC)c2c(c1)C(=O)c1cc(OC)cc(OC)c1C2=O | > 25 µM (inactive) | > 25 µM |
| Cc1ccc(C)c(N2CCN(C(=O)Cc3cn(C)c4ccccc34)CC2)c1 | 21.9 µM | > 25 µM |
| CCc1nnc(NC(=O)Nc2ccccc2OC)s1 | > 25 µM (inactive) | > 25 µM |
| CCN1CCN(CCNC(=O)c2ccc(/C=C3/Sc4ccccc4N(Cc4ccccc4C)C3=O)cc2)CC1 | 15.5 µM | > 25 µM |
| C[C@]1(C(=O)NCCCNc2ncc(C(F)(F)F)cc2Cl)C=C[C@@H](Cc2ccccc2)N1C(=O)c1ccccc1 | 11.9 µM | > 25 µM |
| Cc1cc(C)n(CC(O)Cn2c3ccc(Cl)cc3c3cc(Cl)ccc32)c(=O)n1 (configuration not stated) | 16.6 µM | > 25 µM |
| O=C(COC(=O)c1cc(-c2cccc(Br)c2)nc2ccccc12)NCC1CCCO1 (configuration not stated) | 19.8 µM | > 25 µM |
| C/C(=N\Nc1cc(-c2ccccc2)nc(-c2ccccc2)n1)c1ccc(O)c(C)c1 | 3.31 µM | > 25 µM |
| CCOC(=O)C1=C(Nc2ccccc2)CC(C)(O)C(C(=O)OCC)C1c1ccc(Cl)cc1 (configuration not stated) | 15.6 µM | > 25 µM |
| Cc1nc(N2CCC(C)CC2)c2c(C)c(C(=O)Nc3cc(F)ccc3C)sc2n1 | 19.7 µM | > 25 µM |
| CCOC(=O)C1CCN(CC(=O)Nc2cc(C)nn2-c2nc3ccccc3s2)CC1 | > 25 µM (inactive) | > 25 µM |
| O=c1c2cn[nH]c2nc(SCc2ccccc2F)n1-c1ccc(Br)cc1 | 11.2 µM | 23.8 µM |
| COc1ccc(-c2[nH]c(-c3cc(OC)c4c(c3)OCO4)nc2-c2ccccc2)cc1 | 12.6 µM | > 25 µM |
| COc1cc2[nH]c(=O)n(CCC(=O)N3CCN(c4cccc(C)c4C)CC3)c(=O)c2cc1OC | > 25 µM (inactive) | > 25 µM |
| COc1ccc(OCCC(=O)N2CCCCC2)cc1 | > 25 µM (inactive) | > 25 µM |
| CC(C)Cc1ccc(C(C)C(=O)OCC(=O)c2c[nH]c3ccccc23)cc1 (configuration not stated) | 17.5 µM | > 25 µM |
| CC1(C)C=Cc2c(c3c(c4c(=O)c(-c5ccc(O)cc5)coc24)OC(C)(C)CC3)O1 | 14 µM | 24.4 µM |
| CCOC(=O)c1sc(NC(=O)Nc2cccc(Cl)c2)cc1C | 11.8 µM | > 25 µM |
| N#Cc1ccccc1Sc1ccccc1C(=O)Nc1ccc(Br)cc1 | > 25 µM (inactive) | > 25 µM |
| Cc1nc(NC2=NCN(C3CCCCC3C)CN2)nc2ccccc12 (configuration not stated) | > 25 µM (inactive) | > 25 µM |

| SMILES | IC50 (WT cells) | IC50 [1] |
| --- | --- | --- |
| O=C(NCc1ccccc1)c1ccc(-c2ccccc2C(F)(F)F)o1 | > 25 µM (inactive) | > 25 µM |
| Cc1ccc(S(=O)(=O)c2nc(Nc3ccccc3)sc2Cl)cc1 | 14.1 µM | > 25 µM |
| COc1cc(/C=N/N=C(/C(=O)c2ccccc2)c2ccccc2)cc(OC)c1O | 16.5 µM | > 25 µM |
| CC(C)(C)NC(=O)NC(=O)COC(=O)Cc1coc2ccc3ccccc3c12 | 21.2 µM | > 25 µM |
| CCOC(=O)C1=CN(c2cccc(F)c2)C=C(C(=O)OCC)C1c1cc(OC)c(O)c([N+](=O)[O-])c1 | 5.68 µM | > 25 µM |
| Cc1cc(Br)ccc1NC(=O)CN1C(=O)C2C3CC(c4ccccc4)C(C3)C2C1=O (configuration not stated) | 20.4 µM | > 25 µM |
| CC(C)(C)N/N=C1\CC(c2ccccc2)Oc2ccccc21 (configuration not stated) | 14.5 µM | > 25 µM |
| COc1cc(CNn2cn[nH]c2=S)cc(Br)c1OCc1ccccc1F | 19.7 µM | > 25 µM |
| Cc1cc(=O)oc(C)c1C(=O)Nc1ccc2nsnc2c1 | > 25 µM (inactive) | > 25 µM |
| CCOC(=O)c1c(C)n(C)c2cc(Br)c(C(=O)OC)cc12 | > 25 µM (inactive) | > 25 µM |
| COc1cccc(OC)c1OCCCCN1CCCC1 | > 25 µM (inactive) | > 25 µM |
| O=C(CSc1ccccc1)NCc1cccnc1 | > 25 µM (inactive) | > 25 µM |
| C/C(=N\N1CCCCC1c1cccnc1)c1c(O)n(C2CCCCC2)c(=S)[nH]c1=O (configuration not stated) | > 25 µM (inactive) | > 25 µM |
| Cc1ccc(S(=O)(=O)n2c3ccc(Cl)cc3c3nc(C)sc32)cc1 | 9.63 µM | > 25 µM |
| CC(C)(C)c1ccc(CNc2ccc([N+](=O)[O-])cn2)cc1 | > 25 µM (inactive) | > 25 µM |
| C=CCn1c(N)c(C(=O)OCC(C)C)c2nc3ccccc3nc21 | > 25 µM (inactive) | > 25 µM |
| O=C(N/N=C/c1c[nH]c2ccccc12)C1CC1(c1ccccc1)c1ccccc1 (configuration not stated) | > 25 µM (inactive) | > 25 µM |
| CCOC(=O)C1=C(C)NC(=S)NC1c1ccc(-c2ccc(Cl)cc2)o1 (configuration not stated) | 10.4 µM | 24.2 µM |
| COc1c(F)c(F)c(C(=O)O)c(Nc2ccccc2C)c1F | > 25 µM (inactive) | > 25 µM |
| Cc1ccc(C(C)C)c(OCCNC(=S)Nc2cccc3ccccc23)c1 | 6.51 µM | > 25 µM |
